Consider 2 molecules from US9341618B2, “Method for evaluating or screening hair growth-regulating agent” (Kao Corporation, priority 2007, dated 2016).

One test has as its system hair follicles of a pig. Conditions: DHT 10 ng/mL; for Hair elongation quantity (control regarded as 100%): 6th day of organ culture, William's E medium. The protocol:
As a pig skin, a skin obtained from a crossbred pig with white hair which has been bred as a pork pig in Japan was used. The pig skin was cut into an appropriate size, the extra fat was cut away, and the resulting skin was soaked in a Hibiten solution (5% Hibiten solution (Sumitomo Pharmaceuticals) was diluted to 5 to 20 times with water) for 5 to 10 minutes under sterile conditions for sterilization and then washed several times with D-PBS.
Then hair follicles were isolated from the treated pig skin using forceps and scalpel (FEATHER No. 10) under a stereo microscope and collected in a medium.
According to the procedures (1), hair follicles of a pig were obtained from the dorsal region, lateral region, abdominal region, inguinal region, buttocks and shoulder of the pig. The isolated hair follicles were placed in a 24-well culture plate to give one hair follicle per well.
Incubation was carried out at 37° C. for 6 days in an incubator containing 5% of CO2.
The medium was exchanged every two days or every three days, and a hair elongation quantity after 6 days incubation was measured and compared with that of control.
For the control, William's E medium not containing DHT was used, and a hair elongation quantity after the organ culture was regarded as 100%.
Incidentally, a hair elongation quantity was measured, regarding the date on which incubation was commenced as the 0th day, by taking stereo microscopic images with a CCD camera (pixera model No. PVC 100C) at the 0th day and the 6th day, and measuring the change of the length from the base of hairbulb to the tip of hair shaft based on the images.

Test [1] deals with hair follicles at the buttocks of a pig. Description: Organ culture of pig buttocks hair follicles in RPMI1640 medium (hair elongation). The format is cell-based. Conditions: TGF-β2 10 ng/mL, 8th day of organ culture in RPMI1640 medium. The protocol: The hair follicles were incubated at 37° C. for 8 days in an incubator containing 5% of CO2.
In test [2] the test system is hair follicles of a human. Conditions: literature; cited from earlier work.
The mark [3] stands for this setting: abdominal region hair follicles.

Like-named read-outs stand apart in the source and are kept apart here.

With `C[C@]12CCC(=O)C[C@@H]1CC[C@@H]1[C@@H]2CC[C@]2(C)[C@@H](O)CC[C@@H]12` [DHT, 5α-dihydrotestosterone], the figures for the “Growth of hair follicles, effect in words” value in the test with hair follicles of a pig (setting [3]) and in the test on hair follicles of a pig (dorsal region hair follicles) were “suppressed” and “promoted”, respectively. Moreover, the “Hair elongation quantity (control regarded as 100%)” value amounted to 75% with hair follicles of a pig (setting [3]); 102% in the test with hair follicles of a pig (buttocks hair follicles); 179% in the test with hair follicles of a pig (dorsal region hair follicles); 102% in the test with hair follicles of a pig (inguinal region hair follicles); 108% in the test on hair follicles of a pig (lateral region hair follicles); 99% in the test with hair follicles of a pig (shoulder hair follicles).

B1: TGF-β2: TGF-β2 (R & D Systems, Inc., item No. 102-B2-001/CF), confirmed to suppress hair growth in human hair follicle organ culture (protein, UniProt P61812 303-414, looked up)
Transforming growth factor …: ALDAAYCFRNVQDNCCLRPLYIDFKRDLGWKWIHEPKGYNANFCAGACPYLWSSDTQHSRVLSLYNTINPEASASPCCVSQDLEPLTILYYIGKTPKIEQLSNMIVKSCKCS
For B1, the “Hair elongation rate (%) when that of control is regarded as 100%” value in test [1] turned out to be 59%. The “Effect on hair growth in organ culture” value in test [2] is recorded as “confirmed to suppress hair growth”.
